Laboratory results published in patent US20050065136A1, “Methods and compositions for the treatment of infertility using dilute hormone solutions” (priority 2003, published 2005).

Experiments:
Format in all cases: in vivo, human
[1] = Clinical responses of hormone allergy symptoms to intradermal administration of progesterone; conditions: dilute doses, sublingually or intradermally
Procedure: Patients experiencing several hormone allergy symptoms experienced relief when administered dilute doses of progesterone either sublingually or intradermally. […] The symptoms measured were irritation or pain in the neck, nose, eyes, throat, ear, skin, back, hips, upper extremities and lower extremities, headache, and shortness of breath. The patients were administered 0.5 mg of progesterone intradermally. Patients were designated as responding patients in Table 2 if they experienced any relief of the indicated symptom. Patients were also asked to estimate the amount of improvement in the symptom, an average of which is indicated as the % improvement in responding patients. In Table 3 the probability that positive results (i.e. patients responding to treatment) were due to random effects was calculated using standard statistical analysis of patient tests. It was assumed that if the treatment has no effect, there is a 50% chance that a patient will indicate a positive response and a 50% chance that a patient will indicate a negative response. From this assumption, coupled with the actual data, one may calculate the probability that positive responses are due to an actual effect of the treatment and not simply random effects. In general, results with a less than 1% chance of being random are considered highly significant. […]

[2] = Symptom relief on a 0 to 10 scale in women with acute asthma after intradermal progesterone
Procedure: To test this hypothesis, 142 women with acute asthma were asked to evaluate the severity of their symptoms using an eleven point scale. Ten was assigned to the most severe symptoms, while 0 was assigned to an absence of symptoms. Immediately after assessing their symptoms on this scale, patents were administered 0.5 mg of progesterone by intradermal injection. Approximately 15 to 30 seconds after the injection was administered, each patient was asked if her symptoms were worse, better, or unchanged. Each patient was also asked to rate her present symptoms on the same 0 to 10 scale. […] Of the 142 patients tested 129 (91%) positively responded to the treatment. Using the random effects calculations described in Example 3, this correlates to a less than 0.1% chance that the results are random. Thus the results may be considered highly significant.

[3] = Relief of symptoms with intradermal estrogen in patients not relieved by progesterone; conditions: 0.4 mg intradermally; many patients whose symptoms are not relieved using progesterone
[4] = 0.5 mg intradermal injection, 142 women with acute asthma, 15 to 30 seconds after injection

Compound	effectiveness in producing symptom relief as compared to several other antigens [1]	speed of relief ([1]; in most patients)	average symptomatic relief for those who reported some response ([2]; 0 to 10 scale, responders only)	average symptomatic relief for all patients ([2]; 0 to 10 scale, responding and not responding patients)	% of patients reporting 100% relief of asthma symptoms ([2]; 0.5 mg intradermal injection)	average reduction in symptoms relative to the maximum individual patient score ([2]; 0.5 mg intradermal injection)	% of patients positively responding to the treatment [2, 4]	number of patients positively responding to the treatment [2, 4]	number of patients reporting 100% relief of asthma symptoms ([2]; 0.5 mg intradermal injection, of the 129 patients with symptom relief)	relief of symptoms [3]
CC(=O)[C@H]1CC[C@H]2[C@@H]3CCC4=CC(=O)CC[C@]4(C)[C@H]3CC[C@]12C [Progesterone]	most effective	very quickly	5 points	3.4 points	28%	62%	91%	129	40	
estrogen										experience relief
